In publication PMC4690855 (Viruses, 2015):
Values joined by “and” are separate entries in the source; they are usually repeats but may differ in a detail not shown here. Equal entries are not always repeated. “Also recorded” adds a separate entry of the source. Structures can show the parent of a compound that is named as a salt. Where two headings read alike, the source gives them in different places.

Assays:
wild-type HIV-2 protease = wild-type HIV-2 protease (Human immunodeficiency virus type 2 subtype A, UniProt P04584); experiment: In vitro enzymatic (HPLC) inhibition assay, wild-type protease; assay type: biochemical
[1] = tested on: double mutant (I54M, L90M) HIV-2 protease; experiment: In vitro enzymatic (HPLC) inhibition assay, double mutant protease; assay type: biochemical; settings: for Fold Increase (Ki): Ki double mutant versus wild-type
[2] = tested on: HIV-2 vectors harboring the double mutation (I54M, L90M); experiment: Cell culture inhibition profiling, HIV-2 vector harboring the double mutation; assay type: cell-based; settings: for IC50: transfected 293T cells, 3 days, RT activity in medium, triplicate, mean ± SD, read-out: IC50 Double Mutant (I54M, L90M) (cell culture); for Fold Increase (IC50, cell culture): IC50 double mutant versus wild-type; for Effect of I54M-L90M double mutation on IC50 in cell culture, in words: double mutant versus wild-type vector
[3] = molecular target: T1, double mutant (I54M, L90M) HIV-2 protease (Human immunodeficiency virus type 2 subtype A, UniProt P04584, I567M/L603M); experiment: In vitro enzymatic (HPLC) inhibition assay, double mutant protease; assay type: biochemical
T1 sequence (P04584 514-612 I567M/L603M): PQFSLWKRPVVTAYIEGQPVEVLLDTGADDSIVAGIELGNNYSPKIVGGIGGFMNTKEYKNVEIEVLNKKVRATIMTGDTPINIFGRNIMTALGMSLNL

wild-type HIV-2 vectors = experiment: Cell culture inhibition profiling, wild-type HIV-2 vector; assay type: cell-based; settings: transfected 293T cells, 3 days, RT activity in medium, triplicate, mean ± SD
[4] = calculated from IC50 by Ki = (IC50 − E/2)/(S/Km + 1), mean ± SD, read-out: Ki Wild-Type
[5] = Human immunodeficiency virus 2, HEK-293T, 72 h
[6] = HPLC, oligopeptide substrate, pH 5.6, 37 °C 1 h, triplicate, mean ± SD, read-out: IC50 Wild-Type

Sequence of wild-type HIV-2 protease (P04584 514-612 limits assumed): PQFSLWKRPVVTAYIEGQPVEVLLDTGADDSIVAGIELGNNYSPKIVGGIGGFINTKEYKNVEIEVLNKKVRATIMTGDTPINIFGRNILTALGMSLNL

Structure (SMILES): CC(C)(C)NC(=O)[C@@H]1CN(Cc2cccnc2)CCN1C[C@@H](O)C[C@@H](Cc1ccccc1)C(=O)N[C@H]1c2ccccc2C[C@H]1O [Indinavir sulfate, indinavir sulfate]
- Ki (wild-type HIV-2 protease; [4]): 0.03 nM
- Fold Increase (Ki) [1]: more than 10 fold
- IC50 [2, 5]: 16500 ± 2100 nM
- Fold Increase (IC50, cell culture) [2]: 11.7 fold
- Fold Increase (IC50, cell culture) ([2]; listed as indinavir sulfate): > 10 fold

Structure (SMILES): COC(=O)N[C@H](C(=O)N[C@@H](Cc1ccccc1)[C@@H](O)CN(Cc1ccc(-c2ccccn2)cc1)NC(=O)[C@@H](NC(=O)OC)C(C)(C)C)C(C)(C)C [Atazanavir]
- IC50 (wild-type HIV-2 protease; [6]): 3.34 ± 1 nM
- Ki (wild-type HIV-2 protease; [4]): 0.09 ± 0.03 nM
- IC50 [3]: 10.9 ± 0.2 nM
- Fold Increase (Ki) [1]: 16.6 fold

Structure (SMILES): COC(=O)N[C@H](C(=O)N[C@@H](Cc1ccccc1)[C@@H](O)CN(Cc1ccc(-c2ccccn2)cc1)NC(=O)[C@@H](NC(=O)OC)C(C)(C)C)C(C)(C)C.O=S(=O)(O)O [Atazanavir sulfate, atazanavir sulfate]
- Ki (wild-type HIV-2 protease; wild-type protease, read-out: Ki Wild-Type (as printed in text in μM)): 0.09 ± 0.03 nM
- Fold Increase (Ki) [1]: more than 10 fold
- IC50 (wild-type HIV-2 vectors): 5900 ± 500 nM
- Fold Increase (IC50, cell culture) [2]: 4.8 fold
- Effect of I54M-L90M double mutation on IC50 in cell culture, in words [2]: significant IC50 increase
- IC50 [2]: 28600 ± 350 nM

Structure (SMILES): CC(C)c1nc(CN(C)C(=O)N[C@H](C(=O)N[C@@H](Cc2ccccc2)C[C@H](O)[C@H](Cc2ccccc2)NC(=O)OCc2cncs2)C(C)C)cs1 [Ritonavir]
- IC50 [2, 5]: 14500 ± 300 nM

Structure (SMILES): Cc1cccc(C)c1OCC(=O)N[C@@H](Cc1ccccc1)[C@@H](O)C[C@H](Cc1ccccc1)NC(=O)[C@H](C(C)C)N1CCCNC1=O [Lopinavir]
- IC50 (wild-type HIV-2 protease; [6]): 1.18 ± 0.1 nM
- Ki (wild-type HIV-2 protease; [4]): 0.03 ± 0.001 nM
- IC50 [3]: 2.32 ± 0.1 nM
- Fold Increase (Ki) [1]: 10.6 fold
- Fold Increase (Ki) ([1]; listed as lopinavir): more than 10 fold
- IC50 [2, 5]: 3100 ± 1100 nM
- Fold Increase (IC50, cell culture) [2]: 20.6 fold
- Fold Increase (IC50, cell culture) ([2]; listed as lopinavir): > 20 fold

Structure (SMILES): CC(C)CN(C[C@@H](O)[C@H](Cc1ccccc1)NC(=O)O[C@H]1CCOC1)S(=O)(=O)c1ccc(N)cc1 [Amprenavir]
- IC50 [3]: 152 ± 9 nM
- IC50 [2, 5]: > 100000 nM

Structure (SMILES): CC(C)CN(C[C@@H](O)[C@H](Cc1ccccc1)NC(=O)O[C@H]1CO[C@H]2OCC[C@H]21)S(=O)(=O)c1ccc(N)cc1 [Darunavir]
- IC50 (wild-type HIV-2 protease): 1.76 ± 0.1 nM
- Ki (wild-type HIV-2 protease; Ki Wild-Type, calculated from IC50 by Ki = (IC50 − E/2)/(S/Km + 1), mean ± SD): 0.05 ± 0.005 nM
- IC50 [3]: 8.14 ± 1.3 nM
- Fold Increase (Ki) [1]: 22.2 fold
- Fold Increase (Ki) ([1]; listed as darunavir): > 20 fold
- IC50 [2, 5]: 18700 ± 1600 nM
- Fold Increase (IC50, cell culture) [2]: 44.5 fold
- Fold Increase (IC50, cell culture) ([2]; listed as darunavir): > 40 fold

Structure (SMILES): CC(C)(C)NC(=O)[C@@H]1C[C@@H]2CCCC[C@@H]2CN1C[C@@H](O)[C@H](Cc1ccccc1)NC(=O)[C@H](CC(N)=O)NC(=O)c1ccc2ccccc2n1 [Saquinavir]
- IC50 (wild-type HIV-2 protease; [6]): 3.42 ± 0.1 nM
- Ki (wild-type HIV-2 protease; [4]): 0.09 ± 0.001 nM
- IC50 [3]: 14.1 ± 1.7 nM
- Fold Increase (Ki) [1]: 21.4 fold
- Fold Increase (Ki) ([1]; listed as saquinavir): > 20 fold
- IC50 [2, 5]: 3500 ± 1200 nM
- Fold Increase (IC50, cell culture) [2]: 2.7 fold
- Effect of I54M-L90M double mutation on IC50 in cell culture, in words [2]: significant IC50 increase

Structure (SMILES): Cc1c(O)cccc1C(=O)N[C@@H](CSc1ccccc1)[C@H](O)CN1C[C@H]2CCCC[C@H]2C[C@H]1C(=O)NC(C)(C)C [Nelfinavir]
- IC50 (wild-type HIV-2 protease; [6]): 38 ± 10 nM
- Ki (wild-type HIV-2 protease; [4]): 1 nM and 1.01 nM
- IC50 [3]: 190 ± 14.5 nM
- Fold Increase (Ki) [1]: 26 fold
- Fold Increase (Ki) ([1]; listed as nelfinavir): > 20 fold
- IC50 [2, 5]: 5100 ± 1700 nM
- Fold Increase (IC50, cell culture) [2]: 1.8 fold
- Effect of I54M-L90M double mutation on IC50 in cell culture, in words [2]: significant IC50 increase

Structure (SMILES): CC(C)(C)NC(=O)[C@@H]1CN(Cc2cccnc2)CCN1C[C@@H](O)C[C@@H](Cc1ccccc1)C(=O)N[C@H]1c2ccccc2C[C@H]1O [Indinavir]
- IC50 (wild-type HIV-2 protease; [6]): 1.3 ± 0.5 nM
- IC50 [3]: 2.6 ± 1.4 nM
- Fold Increase (Ki) [1]: 12 fold

Structure (SMILES): CCC[C@@]1(CCc2ccccc2)CC(O)=C([C@H](CC)c2cccc(NS(=O)(=O)c3ccc(C(F)(F)F)cn3)c2)C(=O)O1 [Tipranavir]
- IC50 (wild-type HIV-2 protease; [6]): 50 ± 2 nM
- Ki (wild-type HIV-2 protease; [4]): 1.3 nM and 1.31 nM
- IC50 [3]: 4.8 ± 1.6 nM
- Fold Increase (Ki) [1]: 0.5 fold
- Effect of I54M, L90M double mutation on inhibitor efficacy (enzymatic), in words ([1]; double mutant versus wild-type protease): remained indifferent to the mutations; also recorded: did not observe a significant increase in Ki
- IC50 [2, 5]: 5800 ± 1700 nM
- Fold Increase (IC50, cell culture) [2]: 1.5 fold
- Effect of I54M-L90M double mutation on IC50 in cell culture, in words [2]: did not have an effect
